According to US20170355959A1, “METHODS FOR MOBILISING POPULATIONS OF STEM CELLS” (Imperial Innovations Limited, priority 2014, published 2017):

Assays:
Format in all cases: in vivo, mice
CFU-Fs (MSPCs) = test: Mobilization of MSPCs into peripheral blood (CFU-F assay)
HPCs = test: In situ perfusion of mouse hind limb, CFU-HPCs in perfusate; conditions: four day pretreatment, b3 adrenergic agonist in combination with FAAH inhibitor
Description: Mice were administered BRL 37344 (10 mg/kg i.p.) or vehicle on 4 consecutive days. 1 hour after the last injection, the mice were anaesthetized. The femoral vein and artery were exposed and cannulated in situ immediately after the hind limb was isolated by occlusion of the surrounding arteries as previously described (Pitchford et al, 2009; Pitchford et al, 2010). Perfusion buffer was infused via the arterial cannula and removed from the venous cannula using a Minipuls Peristaltic Pump (Anachem). The hind limb was initially infused with AMD3100 (0.1 mM) or vehicle for 10 minutes using an infusion/withdrawal pump (Harvard Instruments) and was further perfused for 50 minutes with perfusion buffer (Pitchford et al, 2010). The perfusate was collected over 60 minutes and then centrifuged and resuspended in DMEM (Gibco) +20% fetal bovine serum for enumeration of CFU-HPCs and CFU-Fs.
Harvested peripheral blood or perfusate was red blood cell-lysed and 1×10^5 cells were added to tissue culture-treated petri dishes containing 1 ml of Methocult™ (M3434; StemCell Technologies) to select for CFU-HPCs. Cultures were incubated at 37° C. and quantified on day 12. Similarly, 1×10^6 bone marrow cells harvested by bone marrow flush of the hind limb femur were plated for CFU-HPCs.

CXCL12 = CXCL12 ELISA of bone marrow supernatant; conditions: 4 days of treatment, bone marrow 2 hours after final injection
Description: (A) Mice were pretreated with BRL 37344 (β3), G-CSF or vehicle (VEH) once daily on 4 consecutive days. 2 hours after the final BRL 37344 injection or 24 hours after the final G-CSF injection, bone marrow was collected for quantification of CXCL12 levels (n=16 and n=6-8, respectively). (B) Bone marrow cells were collected from naïve mice and were treated in vitro with clenbuterol (β2), BRL 37344 (β3) or vehicle (VEH). CFU-Fs per 10^6 cells are shown (n=6 mice per group). (C) Mice were pre-treated with AM 251, AM 630, BRL 37344 (β3) or vehicle (VEH) once daily on 4 consecutive days. 2 hours after the last injection, bone marrow cells were collected for enumeration of CFU-Fs. CFU-Fs per 10^6 cells are shown (n=6-8 mice per group). (D) CB1 receptor antagonist AM 251 (CB1l, CB2 receptor antagonist AM 630 (CB2l, BRL 37344 (β3) or vehicle. Data represented as mean±SEM. (A) **p<0.01 (unpaired student t-test) and (B-D) *p<0.05, **p<0.01, ***p<0.001 (one-way ANOVA).
CXCL12 content in blood plasma and bone marrow supernatant was quantified using CXCL12 capture (MAB350) and detection (BAF351) antibodies (RnD systems), and the assay was performed according to the manufacturers' instructions. Recombinant mouse CXCL12 (RnD systems) was used to generate a standard curve.

C[C@H](Cc1ccc(OCC(=O)O)cc1)NC[C@H](O)c1cccc(Cl)c1 [BRL37344]
pre-treatment time needed for CFU-F mobilization (CFU-Fs (MSPCs); 2 h versus 4 d pre-treatment, then AMD3100): required the pre-treatment of mice over 4 days to see this effect
dose dependence of CFU-F mobilization in response to the CXCR4 antagonist (CFU-Fs (MSPCs); mouse, in vivo): dose response relationship
circulating CFU-Fs (CFU-Fs (MSPCs); pre-treated once daily for 4 days, then AMD3100, blood 1 hour later): significantly boosted circulating numbers of HSPCs and CFU-Fs as compared to that observed with isoproterenol and AMD3100 in combination
HPC egress from the bone marrow in response to infusion of the CXCR4 antagonist (HPCs): significantly enhanced both HPC and MSC egress from the bone marrow
levels of CXCL12 in the bone marrow (CXCL12): had no effect on levels of CXCL12 in the bone marrow
